Experiment: Human HepG2 cell viability assay in 384 well format
Type: toxicity, cell-based
Set-up: dose 125 nL, time 70.5 hour; cytotoxicity at 70.5 h: concentration not given beside the values
Settings: HepG2 cells, read-out: Inhibition

Row | Compound | cytotoxicity at 70.5 h [%]
1 | O=C(CCC(=O)N1CCC(c2noc3cc(F)ccc23)CC1)NC1CC1 | 13.1
2 | O=C1CCCC2=C1C(c1ccccc1F)Nc1nonc1N2 (stereo unspecified) | -3.65
3 | CCCc1nc2c(c(C)c(C)n2Cc2ccncc2)c(N)c1CC | 53.6
4 | CC(C)n1nnc2c(sc3nc(N4CCOCC4)c4c(c32)CCC4)c1=O | -13.1
5 | Cc1nc(Cc2ccccc2)nc2sc(C(=O)O)c(C)c12 | -5.63
6 | COC(=O)[C@H](C)NC(=O)Cn1ccc2ccc(F)cc21 | -1.25
7 | COc1ccc(S(=O)(=O)NCCCc2nnc3nc(C)cc(C)n23)cc1 | -7.77
8 | CC(C)CCNC(=O)CNC(=O)N1CCc2c([nH]c3ccc(Cl)cc23)C1 | -19.7
9 | CSCC[C@@H](CO)NC(=O)c1sc(-c2ccc(Cl)cc2)nc1C | -11.9
10 | CC(C)Cc1nc(OCC(=O)O)c(C#N)c2c1CCCC2 | -7.68
11 | O=C(Cc1csc(-c2cccc(Cl)c2)n1)NCc1cccc(C(=O)O)c1 | -14.3
12 | Cc1nn2c(NC(=O)CSc3ncccn3)csc2nc1=O | -12.6
13 | O=C(NC1CCCC1)c1nc(COc2ccc3c(c2)OCO3)no1 | -9.86
14 | CN1C(=O)C2(CC(=O)Nc3[nH]ncc32)c2cc(Cl)ccc21 (stereo unspecified) | -29.3
15 | O=C(C1CC1)N(Cc1ccc2cc[nH]c2c1)C1CC1 | -22.5
16 | CNc1oc(COc2ccc3c(c2)OCO3)nc1C#N | -19.3
17 | Cc1nnc(SCC(=O)c2cc3c(cc2Cl)NC(=O)C3)o1 | -31.5
18 | COCCNc1nc(N2CCOCC2)nc2nccnc12 | -4.36
19 | COCCNC(=O)Cn1ccc2cccc(OC)c21 | 8.67
20 | Cc1nnc(SC2CCc3ccccc3NC2=O)o1 (stereo unspecified) | -16.3
21 | COc1cccc(N2Cc3nc(=O)n(Cc4cccc(F)c4)n3C2=O)c1 | -20.7

Row | Compound | cytotoxicity at 70.5 h [%]
22 | CNC(=O)c1nc(COc2c(C)occc2=O)no1 | -14.3
23 | CC(C)c1nc2oc(C(=O)N3CCOCC3)c(N)c2c2c1CCCC2 | -16.6
24 | Cc1nnc(SCC(=O)c2cc3c(cc2Cl)NC(=O)C3)s1 | -30.2
25 | CC(C)CNC(=O)Cn1ccc2ccccc21 | -0.252
26 | CN1CCN(S(=O)(=O)c2cccc(S(=O)(=O)C3CCS(=O)(=O)C3)c2)CC1 (stereo unspecified) | -11.1
27 | COC(=O)[C@H](CCSC)NC(=O)Cn1ccc2c(Cl)cccc21 | -17.2
28 | O=C(Cc1noc(C(=O)NCC2CC2)n1)Nc1cccc(C(F)(F)F)c1 | -7.55
29 | Cc1cccnc1NC(=O)C1(n2cnnn2)CCCCC1 | -30.1
30 | CSc1nsc(SCC(=O)c2cc3c(cc2Cl)NC(=O)C3)n1 | -29.3
31 | COc1ccc2c(ccn2CCC(=O)Nc2ccc(C(N)=O)cc2)c1 | -7.39
32 | NC(=O)c1nc(CC(=O)Nc2cccc(C(F)(F)F)c2)no1 | 0.00692
33 | Cc1sc(-n2cnnn2)c(C(=O)NC(C)C)c1C | -10.9
34 | CSc1sc2c(O)cc(=O)[nH]c2c1C(N)=O | 11.3
35 | Nc1nnc(SCC(=O)c2cc3c(cc2Cl)NC(=O)C3)s1 | -25.4
36 | CC(C)C[C@H](NC(=O)Cn1ccc2c(Cl)cccc21)C(=O)O | -15.2
37 | COc1cccc(N2CCN(C(=O)COc3c(C)occc3=O)CC2)c1 | 10
38 | COc1ccc(N2CCN(C(=O)COc3c(C)occc3=O)CC2)cc1 | 2.1
39 | CC(=O)N1CCN(C(=O)c2ccc3ccn(C)c3c2)CC1 | -15.9
40 | O=C(c1cc(=O)c(OCc2ccccc2F)co1)N1CCSCC1 | -3.38
41 | CCc1c(C)sc2c1c(N)nc(=O)n2CCCN(C)C | 5.31
42 | COc1coc(C(=O)Nc2nc(C)cs2)cc1=O | -15.8

Row | Compound | cytotoxicity at 70.5 h [%]
43 | COc1ccc2c(ccn2CCC(=O)NCc2ccc(C(=O)O)cc2)c1 | -13.5
44 | COc1ccc2cnn(CC(=O)NC3CCCC3)c(=O)c2c1OC | 2.71
45 | O=C(c1cc(=O)c(OCc2ccccc2)co1)N1CCSCC1 | -18.7
46 | CCc1c(C)sc2nc3n(CCN4CCCCC4)nc(SC)n3c(=O)c12 | 13.4
47 | CC(C)(CO)Nc1c(NCc2ccccc2)c(=O)c1=O | 0.361
48 | O=C(COc1coc(CN2CCOCC2)cc1=O)Nc1ccccc1F | -12
49 | CC(C)(C)n1ncc2c1NC(=O)CSC2c1ccc2c(c1)OCO2 (stereo unspecified) | 2.42
50 | CC(C)CCNc1nc(C(=O)NC2CC2)cs1 | 6.98
51 | O=C(COc1coc(CN2CCCCC2)cc1=O)Nc1cccc(Cl)c1 | -7.03
52 | NC(=O)c1c(SCCN2CCOCC2)sc2c(O)cc(=O)[nH]c12 | 10.5
53 | Cc1nc(NC(=O)c2c(-n3cnnn3)sc(C)c2C)sc1C | -8.41
54 | O=C(NCC(=O)N1CCCC1)c1nc(Cc2c(Cl)cccc2Cl)no1 | -16.3
55 | CS(=O)(=O)N1CCC2(CC1)CN(CCn1cccn1)C(=O)CO2 | 8.7
56 | O=C(c1ccc[nH]1)N1CC2(CCN(c3nccs3)C2)C1 | -3.73
57 | O=C1[C@@H]2CCN(CC3CC3)C[C@@H]2OCCN1c1cccnc1 | 6.28
58 | Cc1cccc(NC(=O)N2Cc3c(CN(C)C)nn(C)c3C2)c1 | -3.74
59 | O=C(c1ccnnc1)N1CCCn2nnc(COCC3CC3)c2C1 | 6.34
60 | COCc1nnn2c1CN(C(=O)c1c[nH]cn1)CCC2 | 0.823
61 | O=S(=O)(C1CC1)N1CCc2ncc(Cn3cccn3)n2CC1 | -1.43
62 | O=C(c1ccsc1)N1CCc2nnc(COc3cncnc3)n2CC1 | 26.7
63 | O=C(c1cccs1)N1CCc2nnc(COc3cncnc3)n2CC1 | 14.1

Row | Compound | cytotoxicity at 70.5 h [%]
64 | O=C(c1ncn2c1CNS(=O)(=O)c1ccccc1-2)N1CCOCC1 | 13.4
65 | O=C(Cc1cccs1)N1CCc2nnc(COc3cncnc3)n2CC1 | 14.8
66 | O=C(c1ccc2[nH]ccc2c1)N1Cc2nc(CN3CCCC3)oc2C1 | -5.17
67 | COc1cc(N2CCC3(CCCN3Cc3ccn(C)n3)CC2)ncn1 | -3.28
68 | Cn1cc(C(=O)NC[C@H]2OC[C@@H]3CCN(C4CCOCC4)C[C@@H]32)cn1 | -3.43
69 | Cc1ccc(N2CCC3(CC2)CCN(C2CCOC2)CC3)nn1 (stereo unspecified) | -6.73
70 | Cn1nc(CN2CCCC2)c2c1CN(C(=O)Nc1cccc(F)c1)CC2 | -7.05
71 | O=C(c1ccncc1)N1CCCn2nnc(COCCO)c2C1 | -5
72 | O=C1COC2(CCN(Cc3ccco3)CC2)CN1CCn1cccn1 | -6.38
73 | COc1cc(N2CCC3(CCCN3Cc3cnn(C)c3)CC2)ncn1 | -3.32
74 | Cc1nc(CN2C[C@@H]3CN(c4ncccn4)C[C@@H]3C2=O)cs1 | -10.3
75 | O=C(NC[C@H]1OC[C@@H]2CCN(C3CCOCC3)C[C@@H]21)c1ccncc1 | -3
76 | Cc1noc(C)c1CN1CCc2cnn(C)c2C1COCC1CC1 (stereo unspecified) | -3.84
77 | COCCN1CCN(Cc2c(C)noc2C)Cc2ccc(C)nc21 | -1.53
78 | CN1CCn2c(-c3cnn(C)c3)cnc2C12CCN(CC1CC1)CC2 | -4.02
79 | CN1CCn2c(-c3ccccc3)cnc2C12CCN(CC1CC1)CC2 | -3.45
80 | Cc1noc(C)c1CN1CCN(CCN(C)C)c2ncccc2C1 | -2.96
81 | O=C(NCCc1c[nH]c2ccccc12)C1CCC(Cn2cnnn2)CC1 (stereo unspecified) | 19.8

Reference: ChEMBL document CHEMBL3507680, “University of Dundee, Gates Library screen for HepG2 cell viability”
